According to article PMC8159387 (Chemical Science, 2020):
Square brackets hold non-standard residues; d marks the D form. Peptide text beside a SMILES is read from it. * marks the point of attachment. CH2CH2OBz(4-tBu) = CC(C)(C)c1ccc(C(=O)OCC*)cc1; dDab = NCC[C@@H](N)C(=O)O; Dab = NCC[C@H](N)C(=O)O; Mpa = O=C(O)CCS

System: E. coli, P. aeruginosa, A. calcoaceticus and S. aureus
Experiment: MIC and MBC summarised across the test species
Format: cell-based
Settings: species not given

CC(C)C[C@H](NC(=O)[C@H](CCN)NC(=O)[C@H](CCN)NC(=O)[C@@H](Cc1ccccc1)NC(=O)[C@H](CC(C)C)NC(=O)[C@H](CCN)NC(=O)[C@H](CCN)NC(=O)[C@@H](CCN)NC(=O)[C@@H](N)CSCCOC(=O)c1ccc(C(C)(C)C)cc1)C(N)=O [Peptide 12f] (H-C(CH2CH2OBz(4-tBu))[dDab][Dab][Dab]L[dF][Dab][Dab]L-NH2)
lowest MIC values of the CLipPA analogues: 8 μM

CC(C)C[C@H](NC(=O)[C@H](CCN)NC(=O)[C@H](CCN)NC(=O)[C@@H](Cc1ccccc1)NC(=O)[C@H](CC(C)C)NC(=O)[C@H](CCN)NC(=O)[C@H](CCN)NC(=O)[C@@H](CCN)NC(=O)CCSCCOC(=O)c1ccc(C(C)(C)C)cc1)C(N)=O [Peptide 13f] ([Mpa](CH2CH2OBz(4-tBu))[dDab][Dab][Dab]L[dF][Dab][Dab]L-NH2)
lowest MIC values of the CLipPA analogues: 8 μM
